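At the GI50, growth is halved. TGI marks complete inhibition of growth.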
How the values were obtained:
Test in all cases: NCI tumour cell line growth inhibition, 384-well format
SK-MEL-28 melanoma = test system: SK-MEL-28 melanoma
ACHN renal = test system: ACHN renal
LOX IMVI melanoma = test system: LOX IMVI melanoma
786-0 renal = test system: 786-0 renal
OVCAR-5 ovarian = test system: OVCAR-5 ovarian
UACC-62 melanoma = test system: UACC-62 melanoma
HT29 colon = test system: HT29 colon
NCI/ADR-RES ovarian = test system: NCI/ADR-RES ovarian
NCI-H460 NSCLC = test system: NCI-H460 NSCLC
MDA-MB-435 melanoma = test system: MDA-MB-435 melanoma
A498 renal = test system: A498 renal
SN12C renal = test system: SN12C renal
EKVX NSCLC = test system: EKVX NSCLC
MOLT-4 leukemia = test system: MOLT-4 leukemia
SNB-75 CNS = test system: SNB-75 CNS
U251 glioblastoma = test system: U251 glioblastoma
HCT-15 colon = test system: HCT-15 colon
SF-539 CNS = test system: SF-539 CNS
OVCAR-3 ovarian = test system: OVCAR-3 ovarian
RXF 393 renal = test system: RXF 393 renal
HL-60(TB) leukemia = test system: HL-60(TB) leukemia
DU-145 prostate = test system: DU-145 prostate
COLO 205 colon = test system: COLO 205 colon
OVCAR-8 ovarian = test system: OVCAR-8 ovarian
MCF7 breast = test system: MCF7 breast
SNB-19 CNS = test system: SNB-19 CNS
HOP-62 NSCLC = test system: HOP-62 NSCLC
NCI-H226 lung = test system: NCI-H226 lung
K-562 leukemia = test system: K-562 leukemia
SR leukemia = test system: SR leukemia
NCI-H322M lung = test system: NCI-H322M lung
HS 578T breast = test system: HS 578T breast
CCRF-CEM leukemia = test system: CCRF-CEM leukemia
TK-10 renal = test system: TK-10 renal
M14 melanoma = test system: M14 melanoma
SK-MEL-5 melanoma = test system: SK-MEL-5 melanoma
SF-295 CNS = test system: SF-295 CNS
UO-31 renal = test system: UO-31 renal
RPMI-8226 leukemia = test system: RPMI-8226 leukemia
UACC-257 melanoma = test system: UACC-257 melanoma
MDA-MB-468 breast = test system: MDA-MB-468 breast
MALME-3M melanoma = test system: MALME-3M melanoma
SF-268 CNS = test system: SF-268 CNS
A549 NSCLC = test system: A549 NSCLC
OVCAR-4 ovarian = test system: OVCAR-4 ovarian
NCI-H522 lung = test system: NCI-H522 lung
HOP-92 NSCLC = test system: HOP-92 NSCLC
SK-OV-3 ovarian = test system: SK-OV-3 ovarian
IGROV1 ovarian = test system: IGROV1 ovarian
SW-620 colon = test system: SW-620 colon
NCI-H23 lung = test system: NCI-H23 lung
BT-549 breast = test system: BT-549 breast
CAKI-1 renal = test system: CAKI-1 renal
HCC-2998 colon = test system: HCC-2998 colon
PC-3 prostate = test system: PC-3 prostate
T-47D breast = test system: T-47D breast
KM12 colon = test system: KM12 colon
MDA-MB-231 breast = test system: MDA-MB-231 breast

C[C@@H]1COC(Nc2ccc3ncnc(Nc4ccc(OCc5nccs5)c(Cl)c4)c3c2)=N1
GI50 (SK-MEL-28 melanoma): 4.88 µM | TGI (SK-MEL-28 melanoma): 17.2 µM | GI50 (ACHN renal): 0.563 µM | TGI (ACHN renal): 17.4 µM | GI50 (LOX IMVI melanoma): 3.25 µM | TGI (LOX IMVI melanoma): 11.6 µM | GI50 ([…]-0 renal): 4.26 µM | TGI (786-0 renal): 16.9 µM | GI50 (OVCAR-5 ovarian): 6.68 µM | TGI (OVCAR-5 ovarian): 28.2 µM | GI50 (UACC-62 melanoma): 4.25 µM | TGI (UACC-62 melanoma): 16.2 µM | GI50 (HT29 colon): 6.33 µM | TGI (HT29 colon): 19.9 µM | GI50 (NCI/ADR-RES ovarian): 2.39 µM | TGI (NCI/ADR-RES ovarian): 6.92 µM | GI50 (NCI-H460 NSCLC): 3.71 µM | TGI (NCI-H460 NSCLC): 12.8 µM | GI50 (MDA-MB-435 melanoma): 11.8 µM | TGI (MDA-MB-435 melanoma): 24.7 µM | GI50 (A498 renal): 4.31 µM | TGI (A498 renal): 19 µM | GI50 (SN12C renal): 2.78 µM | TGI (SN12C renal): 16.1 µM | GI50 (EKVX NSCLC): 0.332 µM | TGI (EKVX NSCLC): 11.4 µM | GI50 (MOLT-4 leukemia): 1.85 µM | TGI (MOLT-4 leukemia): 3.59 µM | GI50 (SNB-75 CNS): 13.5 µM | TGI (SNB-75 CNS): 28.2 µM | GI50 (U251 glioblastoma): 10.7 µM | TGI (U251 glioblastoma): 22.8 µM | GI50 (HCT-15 colon): 5.44 µM | TGI (HCT-15 colon): 21.5 µM | GI50 (SF-539 CNS): 12.3 µM | TGI (SF-539 CNS): 24.8 µM | GI50 (OVCAR-3 ovarian): 1.83 µM | TGI (OVCAR-3 ovarian): 7.84 µM | GI50 (RXF 393 renal): 5.8 µM | TGI (RXF 393 renal): 18.7 µM | GI50 (HL-60(TB) leukemia): 3.82 µM | TGI (HL-60(TB) leukemia): 8.05 µM | GI50 (DU-145 prostate): 3.22 µM | TGI (DU-145 prostate): 17.6 µM | GI50 (COLO 205 colon): 6.44 µM | TGI (COLO 205 colon): 19 µM | GI50 (OVCAR-8 ovarian): 3.12 µM | TGI (OVCAR-8 ovarian): 12.4 µM | GI50 (MCF7 breast): 5.96 µM | TGI (MCF7 breast): 21.2 µM | GI50 (SNB-19 CNS): 11.1 µM | TGI (SNB-19 CNS): 24.5 µM | GI50 (HOP-62 NSCLC): 4.22 µM | TGI (HOP-62 NSCLC): 15 µM | GI50 (NCI-H226 lung): 1.66 µM | TGI (NCI-H226 lung): 5.47 µM | GI50 (K-562 leukemia): 4.48 µM | TGI (K-562 leukemia): 16.6 µM | GI50 (SR leukemia): 7.27 µM | TGI (SR leukemia): 20.5 µM | GI50 (NCI-H322M lung): 0.337 µM | TGI (NCI-H322M lung): 12.9 µM | GI50 (HS 578T breast): 4.71 µM | TGI (HS 578T breast): 15.6 µM | GI50 (CCRF-CEM leukemia): 3.44 µM | TGI (CCRF-CEM leukemia): 8.53 µM | GI50 (TK-10 renal): 1.48 µM | TGI (TK-10 renal): 17.9 µM | GI50 (M14 melanoma): 6.3 µM | TGI (M14 melanoma): 18.3 µM | GI50 (SK-MEL-5 melanoma): 1.77 µM | TGI (SK-MEL-5 melanoma): 4.21 µM | GI50 (SF-295 CNS): 13 µM | TGI (SF-295 CNS): 26.2 µM | GI50 (UO-31 renal): 10.9 µM | TGI (UO-31 renal): 23.6 µM | GI50 (RPMI-8226 leukemia): 3.48 µM | TGI (RPMI-8226 leukemia): 11 µM | GI50 (UACC-257 melanoma): 9.37 µM | TGI (UACC-257 melanoma): 21.2 µM | GI50 (MDA-MB-468 breast): 0.137 µM | TGI (MDA-MB-468 breast): 0.342 µM | GI50 (MALME-3M melanoma): 3.43 µM | TGI (MALME-3M melanoma): 11.4 µM | GI50 (SF-268 CNS): 9.55 µM | TGI (SF-268 CNS): 23.5 µM | GI50 (A549 NSCLC): 4.91 µM | TGI (A549 NSCLC): 19.8 µM | GI50 (OVCAR-4 ovarian): 2.32 µM | TGI (OVCAR-4 ovarian): 14.8 µM | GI50 (NCI-H522 lung): 0.539 µM | TGI (NCI-H522 lung): 2.66 µM | GI50 (HOP-92 NSCLC): 3.25 µM | TGI (HOP-92 NSCLC): 17 µM | GI50 (SK-OV-3 ovarian): 2.2 µM | TGI (SK-OV-3 ovarian): 12.5 µM | GI50 (IGROV1 ovarian): 0.335 µM | TGI (IGROV1 ovarian): 2.13 µM | GI50 (SW-620 colon): 19 µM | TGI (SW-620 colon): 35.7 µM | GI50 (NCI-H23 lung): 7.4 µM | TGI (NCI-H23 lung): 26.3 µM | GI50 (BT-549 breast): 3.81 µM | TGI (BT-549 breast): 12.2 µM | GI50 (CAKI-1 renal): 1.81 µM | TGI (CAKI-1 renal): 14.8 µM | GI50 (HCC-2998 colon): 12.3 µM | TGI (HCC-2998 colon): 26.7 µM | GI50 (PC-3 prostate): 5.36 µM | TGI (PC-3 prostate): 17 µM | GI50 (T-47D breast): 0.641 µM | TGI (T-47D breast): 4.52 µM | GI50 (KM12 colon): 5.6 µM | TGI (KM12 colon): 18.8 µM | GI50 (MDA-MB-231 breast): 9.67 µM | TGI (MDA-MB-231 breast): 22.8 µM
